Results published in PubChem BioAssay (NCI).
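Values below derive from 48-hour exposures of cells grown in 96-well plates, with endpoints linearly interpolated between the two concentrations bracketing the appropriate inhibition level. TGI is the concentration that stops growth completely.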 Where a SMILES comes first, the peptide text is derived from it. [ ]: non-standard residue; d: D form. The star is where a group is joined. ξ: configuration not given here. ξF = NC(Cc1ccccc1)C(=O)O; Cbz = O=C(OCc1ccccc1)*; Aib = CC(C)(N)C(=O)O; NHNH2 = NN*

Key:
Assay in all cases: inhibition of tumour cell growth, NCI panel, 48 h
[1] = test system: 786-0 renal
[2] = test system: A498 renal
[3] = test system: A549 NSCLC
[4] = test system: ACHN renal
[5] = test system: BT-549 breast
[6] = test system: CAKI-1 renal
[7] = test system: CCRF-CEM leukemia
[8] = test system: COLO 205 colon
[9] = test system: DU-145 prostate
[10] = test system: EKVX NSCLC
[11] = test system: HCT-15 colon
[12] = test system: HOP-62 NSCLC
[13] = test system: HOP-92 NSCLC
[14] = test system: HS 578T breast
[15] = test system: HT29 colon
[16] = test system: IGROV1 ovarian
[17] = test system: K-562 leukemia
[18] = test system: KM12 colon
[19] = test system: LOX IMVI melanoma
[20] = test system: M14 melanoma
[21] = test system: MALME-3M melanoma
[22] = test system: MCF7 breast
[23] = test system: MDA-MB-231 breast
[24] = test system: MDA-MB-435
[25] = test system: MDA-N
[26] = test system: MOLT-4 leukemia
[27] = test system: NCI-H226 lung
[28] = test system: NCI-H23 lung
[29] = test system: NCI-H460 lung
[30] = test system: NCI-H522 lung
[31] = test system: NCI/ADR-RES ovarian
[32] = test system: OVCAR-3 ovarian
[33] = test system: OVCAR-4 ovarian
[34] = test system: OVCAR-5 ovarian
[35] = test system: OVCAR-8 ovarian
[36] = test system: PC-3 prostate
[37] = test system: RPMI-8226 leukemia
[38] = test system: RXF 393 renal
[39] = test system: SF-268 CNS
[40] = test system: SF-295 CNS
[41] = test system: SF-539 CNS
[42] = test system: SK-MEL-2 melanoma
[43] = test system: SK-MEL-28 melanoma
[44] = test system: SK-MEL-5 melanoma
[45] = test system: SK-OV-3 ovarian
[46] = test system: SN12C renal
[47] = test system: SNB-19 CNS
[48] = test system: SNB-75 CNS
[49] = test system: SW-620 colon
[50] = test system: T-47D breast
[51] = test system: TK-10 renal
[52] = test system: U251 CNS
[53] = test system: UACC-257 melanoma
[54] = test system: UACC-62 melanoma
[55] = test system: UO-31 renal
[56] = test system: HCC-2998 colon
[57] = test system: HCT-116 colon
[58] = test system: HL-60(TB) leukemia
[59] = test system: SR leukemia

With `CC(C)(NC(=O)OCc1ccccc1)C(=O)NC(Cc1ccccc1)C(=O)NN` (stereo not drawn) (Cbz-[Aib]-[ξF]-NHNH2) the TGI [1] was greater than 100 µM, the TGI [2] was greater than 100 µM and the TGI [3] was greater than 100 µM. The TGI [4] was greater than 100 µM, the TGI [5] was greater than 100 µM and the TGI [6] was greater than 100 µM. For the same molecule, the TGI [7] was greater than 100 µM, the TGI [8] was greater than 100 µM and the TGI [9] was greater than 100 µM. For the same molecule, the TGI [10] was greater than 100 µM, the TGI [11] was greater than 100 µM and the TGI [12] was greater than 100 µM. It also gave a TGI [13] greater than 100 µM, a TGI [14] greater than 100 µM and a TGI [15] greater than 100 µM. The TGI [16] was greater than 100 µM, the TGI [17] was greater than 100 µM and the TGI [18] was greater than 100 µM. For the same molecule, the TGI [19] was greater than 100 µM, the TGI [20] was greater than 100 µM and the TGI [21] was greater than 100 µM. It also gave a TGI [22] greater than 100 µM, a TGI [23] greater than 100 µM and a TGI [24] greater than 100 µM. For the same molecule, the TGI [25] was greater than 100 µM, the TGI [26] was greater than 100 µM and the TGI [27] was greater than 100 µM. For the same molecule, the TGI [28] was greater than 100 µM, the TGI [29] was greater than 100 µM and the TGI [30] was greater than 100 µM. The TGI [31] was greater than 100 µM, the TGI [32] was greater than 100 µM and the TGI [33] was greater than 100 µM. It also gave a TGI [34] greater than 100 µM, a TGI [35] greater than 100 µM and a TGI [36] greater than 100 µM. The TGI [37] was greater than 100 µM, the TGI [38] was greater than 100 µM and the TGI [39] was greater than 100 µM. For the same molecule, the TGI [40] was greater than 100 µM, the TGI [41] was greater than 100 µM and the TGI [42] was greater than 100 µM. The TGI [43] was greater than 100 µM, the TGI [44] was greater than 100 µM and the TGI [45] was greater than 100 µM. The TGI [46] was greater than 100 µM, the TGI [47] was greater than 100 µM and the TGI [48] was greater than 100 µM. The TGI [49] was greater than 100 µM, the TGI [50] was greater than 100 µM and the TGI [51] was greater than 100 µM. For the same molecule, the TGI [52] was greater than 100 µM, the TGI [53] was greater than 100 µM and the TGI [54] was greater than 100 µM. The TGI [55] was greater than 100 µM.
`COc1c(CC=C(C)C)c(O)c(C(CC(C)C)c2c(O)c3c(c(C(C)=O)c2O)OC(C(C)(C)O)C3)c(O)c1C(C)=O` (stereo not drawn) showed a TGI [1] greater than 12.5 µM, a TGI [2] of 12.3 µM and a TGI [3] greater than 12.5 µM. For the same molecule, the TGI [4] was greater than 12.5 µM, the TGI [5] was 9.49 µM and the TGI [6] was greater than 12.5 µM. The TGI [7] was 9.74 µM, the TGI [8] was 8.38 µM and the TGI [9] was greater than 12.5 µM. The TGI [10] was greater than 12.5 µM, the TGI [56] was greater than 12.5 µM and the TGI [57] was greater than 12.5 µM. The TGI [11] was greater than 12.5 µM, the TGI [58] was 7.55 µM and the TGI [12] was greater than 12.5 µM. The TGI [13] was 6.43 µM, the TGI [14] was greater than 12.5 µM and the TGI [15] was greater than 12.5 µM. It also gave a TGI [16] greater than 12.5 µM, a TGI [17] of 9.11 µM and a TGI [18] greater than 12.5 µM. For the same molecule, the TGI [19] was greater than 12.5 µM, the TGI [20] was greater than 12.5 µM and the TGI [21] was greater than 12.5 µM. It also gave a TGI [22] of 9.87 µM, a TGI [24] greater than 12.5 µM and a TGI [25] greater than 12.5 µM. For the same molecule, the TGI [26] was 5.9 µM, the TGI [28] was 8.9 µM and the TGI [30] was greater than 12.5 µM. It also gave a TGI [31] of 11.1 µM, a TGI [32] greater than 12.5 µM and a TGI [33] greater than 12.5 µM. The TGI [34] was greater than 12.5 µM, the TGI [35] was greater than 12.5 µM and the TGI [36] was 10 µM. The TGI [37] was 3.19 µM, the TGI [38] was 10.9 µM and the TGI [39] was greater than 12.5 µM. It also gave a TGI [40] greater than 12.5 µM, a TGI [41] greater than 12.5 µM and a TGI [42] greater than 12.5 µM. It also gave a TGI [43] greater than 12.5 µM, a TGI [44] of 4.44 µM and a TGI [45] greater than 12.5 µM. For the same molecule, the TGI [46] was greater than 12.5 µM, the TGI [47] was greater than 12.5 µM and the TGI [48] was greater than 12.5 µM. It also gave a TGI [59] of 6.93 µM, a TGI [49] greater than 12.5 µM and a TGI [50] of 9.21 µM. For the same molecule, the TGI [53] was 12.4 µM, the TGI [54] was greater than 12.5 µM and the TGI [55] was greater than 12.5 µM.
`COC(=O)C(NC(=O)C(CC(=O)OC(C)(C)C)NC(=O)OC(C)(C)C)C(O)c1ccccc1` (stereo not drawn) showed a TGI [1] greater than 100 µM, a TGI [2] greater than 100 µM and a TGI [3] greater than 100 µM. The TGI [4] was greater than 100 µM, the TGI [5] was greater than 100 µM and the TGI [6] was greater than 100 µM. The TGI [7] was greater than 100 µM, the TGI [8] was greater than 100 µM and the TGI [9] was greater than 100 µM. For the same molecule, the TGI [10] was greater than 100 µM, the TGI [57] was greater than 100 µM and the TGI [11] was greater than 100 µM. For the same molecule, the TGI [12] was greater than 100 µM, the TGI [14] was greater than 100 µM and the TGI [15] was greater than 100 µM. The TGI [16] was greater than 100 µM, the TGI [17] was greater than 100 µM and the TGI [18] was greater than 100 µM. It also gave a TGI [19] greater than 100 µM, a TGI [20] greater than 100 µM and a TGI [21] greater than 100 µM. For the same molecule, the TGI [22] was greater than 100 µM, the TGI [23] was greater than 100 µM and the TGI [24] was greater than 100 µM. It also gave a TGI [25] greater than 100 µM, a TGI [26] greater than 100 µM and a TGI [27] greater than 100 µM. It also gave a TGI [28] greater than 100 µM, a TGI [29] greater than 100 µM and a TGI [30] greater than 100 µM. It also gave a TGI [31] greater than 100 µM, a TGI [32] greater than 100 µM and a TGI [33] greater than 100 µM. For the same molecule, the TGI [34] was greater than 100 µM, the TGI [35] was greater than 100 µM and the TGI [36] was greater than 100 µM. It also gave a TGI [37] greater than 100 µM, a TGI [38] greater than 100 µM and a TGI [39] greater than 100 µM. For the same molecule, the TGI [41] was greater than 100 µM, the TGI [42] was greater than 100 µM and the TGI [43] was greater than 100 µM. For the same molecule, the TGI [44] was greater than 100 µM, the TGI [45] was 61.9 µM and the TGI [46] was greater than 100 µM. It also gave a TGI [47] greater than 100 µM, a TGI [48] greater than 100 µM and a TGI [49] greater than 100 µM. The TGI [50] was greater than 100 µM, the TGI [51] was greater than 100 µM and the TGI [52] was greater than 100 µM. For the same molecule, the TGI [53] was greater than 100 µM, the TGI [54] was 70.8 µM and the TGI [55] was greater than 100 µM.
With `Clc1ccccc1/C=c1\nc(-c2ccccc2)n2c1nc1ccccc12` the TGI [1] was greater than 100 µM, the TGI [2] was greater than 100 µM and the TGI [3] was greater than 100 µM. For the same molecule, the TGI [4] was greater than 100 µM, the TGI [5] was 50 µM and the TGI [6] was greater than 100 µM. For the same molecule, the TGI [7] was greater than 100 µM, the TGI [8] was greater than 100 µM and the TGI [9] was greater than 100 µM. The TGI [10] was 62.9 µM, the TGI [57] was greater than 100 µM and the TGI [11] was greater than 100 µM. The TGI [58] was greater than 100 µM, the TGI [12] was 50.3 µM and the TGI [13] was greater than 100 µM. The TGI [14] was greater than 100 µM, the TGI [15] was greater than 100 µM and the TGI [16] was greater than 100 µM. It also gave a TGI [17] greater than 100 µM, a TGI [18] greater than 100 µM and a TGI [19] greater than 100 µM. It also gave a TGI [20] greater than 100 µM, a TGI [21] greater than 100 µM and a TGI [22] greater than 100 µM. The TGI [23] was 73.1 µM, the TGI [24] was greater than 100 µM and the TGI [25] was greater than 100 µM. It also gave a TGI [26] greater than 100 µM, a TGI [27] greater than 100 µM and a TGI [28] of 47.8 µM. The TGI [29] was greater than 100 µM, the TGI [31] was greater than 100 µM and the TGI [32] was greater than 100 µM. The TGI [33] was greater than 100 µM, the TGI [34] was greater than 100 µM and the TGI [35] was greater than 100 µM. The TGI [36] was 27.9 µM, the TGI [37] was greater than 100 µM and the TGI [38] was 41.9 µM. The TGI [39] was 54.6 µM, the TGI [40] was 31.2 µM and the TGI [41] was 41.9 µM. For the same molecule, the TGI [42] was greater than 100 µM, the TGI [43] was greater than 100 µM and the TGI [44] was greater than 100 µM. The TGI [45] was 71.7 µM, the TGI [46] was greater than 100 µM and the TGI [47] was greater than 100 µM. For the same molecule, the TGI [49] was greater than 100 µM, the TGI [50] was greater than 100 µM and the TGI [51] was greater than 100 µM. It also gave a TGI [52] of 61.3 µM, a TGI [53] greater than 100 µM and a TGI [54] greater than 100 µM. It also gave a TGI [55] greater than 100 µM.
